Measured values as given in publication PMC7717691, “Design, synthesis, and anticonvulsant effects evaluation of nonimidazole histamine H3 receptor antagonists/inverse agonists containing triazole moiety” (Journal of Enzyme Inhibition and Medicinal Chemistry, 2020).
“Also recorded” adds a separate entry of the source. Where two headings read alike, the source gives them in different places. Blank lines part the entries; values can stand above or below the compound they belong to.

Columns and labels:
MES [1] = conditions: cited from earlier work
PTZ [2] = conditions: cited from earlier work
H3R [3] = target: T1, H3R (Homo sapiens, UniProt Q9Y5N1); test: CRE-driven luciferase reporter gene assay, H3R antagonistic activity; type: cell-based; conditions: for % Antagonism 100 nM: 100 nM compound; for % Antagonism 100 nM / % Antagonism 1 μM: HEK-293 cells expressing human H3R, mean ± SD of three experiments; for % Antagonism 1 μM: 1 μM compound
T1 construct: expressed in transfected cells
Procedure: cAMP-response element (CRE) reporter gene assay has been extensively used to evaluate the efficacy of GPCR antagonists or agonists. […] Initially, compounds and positive controls were tested at two concentrations (100 nM and 1 µM) to obtain the preliminary investigation of their H3R antagonistic activities. In the assays, the antagonistic activities was positively correlated with the rise of the fluorescence value and indicated by the % antagonism. For the prominent compounds IC50 values were determined at additional assays.
Human thalamus poly-A RNA (Clontech, Palo Alto, CA, USA) was used to clone the hH3R gene by RT-PCR. DNA PCR primers were designed in the light of the reported human histamine receptor gene sequences (GenBank accession no.AF140538). HEK-293 cells were cultured and transfected for the luciferase assay. The detailed procedures were described in the previous publication.
Stable HEK-293 cells, which had been co-transfected with H3R and pCRE-Luc, were seeded in a 96-well plate overnight, and were grown to 90–95% confluence[43]^,[44]. Then the cells were treated with various concentrations of tested compounds in serum-free DMEM and incubated for 20 min. Cells were then stimulated with 100 nM Histamine in serum-free DMEM containing 2 µM Forskolin and incubated for 4 h at 37 °C. Firefly luciferase assay kits (Ken-real, Shanghai, China) were used to determine the luciferase activity.

MES-induced convulsions = MES-induced convulsions model; type: in vivo; conditions: mice; for protection against MES-induced convulsions (reduction or abolition of THLE): i.p.; for protection against MES-induced convulsions in different doses: Figure 7
From the text: Protection for the mice was defined as the reduction or abolition of the tonic hind limb extension (THLE) in the MES model in mice.
Ear stimulation with alternating current (0.2 s, 60 Hz, 50 mA) was used to induce the seizures in mice. The reduction or abolition of the hind limb tonic extension (THLE) of mice was considered protective against the MES-induced seizures[29]^,[48]. […]

PTZ-induced convulsions = PTZ-induced convulsions model; type: in vivo; conditions: mice, PTZ 85 mg/kg s.c.
Procedure: To investigate the anticonvulsive effects, all the target compounds (3a-3q) were screened in the MES-induced and PTZ-induced convulsion models in mice. Compounds were administered intraperitoneally (i.p.) to mice at dosage of 10 mg/kg in the both models. PIT and valproic sodium (VPA) were used as positive controls in the tests.
PTZ (85 mg/kg) was injected subcutaneously to induce seizures. […] The following are the specific meaning of graded scores: score 0 = normal, score 1 = eyelids or facial twitches, score 2 = agitation with body twisting, score 3 = myo-clonic jerks or rearing, score 4 = turn over into one side position or running violently, and score 5 = turn over into back position, limbs tonic extension, or die during the experiment period.

MES [4] = conditions: 10 mg/kg i.p.; ref not printed (Figure 1); cited from earlier work
PTZ [5] = conditions: 10 mg/kg i.p.; ref not printed (Figure 1); cited from earlier work
[6] = system: human photosensitivity model; conditions: dose ranges of 30–60 mg, alone or in combination with other AEDs; cited from earlier work
intracellular cAMP = test: Effect of compounds administrated alone on the level of intracellular cAMP; type: cell-based; conditions: compound alone; ANOVA followed by Dunnett's test; Figure 2
From the text: It is well known that H3R is a GPCR coupled with Gαi. When the ligand (histamine) binds to H3R, the dissociated Gαi inhibits the activity of adenylate cyclase (AC) and down-regulates the level of intracellular cAMP. In this CREs driven luciferase assay, when cells were pre-treated by H3R antagonists, the downregulation of cAMP would be inhibited, and the level of intracellular cAMP would regain to the initial level.

H3R [7] = target: T1, H3R; test: CRE-luciferase assay, H3R inverse agonist activity (forskolin-stimulated transfected HEK-293 cells); type: cell-based; conditions: 10 µM forskolin plus compound; seven concentrations; read-out: H3R inverse agonistic activity EC50
Procedure: The raise of luciferase activity after adding compound represented the inverse agonistic activity. The EC50 was calculated by seven concentrations.

[8] = Rotarod test (neurotoxicity); type: in vivo; conditions: 10 and 20 mg/kg
From the text: To exclude the possibility that the anticonvulsant activity of 3m was connected with sedative effect, we carried out a rotarod test for 3m.

[9] = 10 mg/kg, 30 min before stimulation, vs saline group

T1 sequence (Q9Y5N1 whole entry): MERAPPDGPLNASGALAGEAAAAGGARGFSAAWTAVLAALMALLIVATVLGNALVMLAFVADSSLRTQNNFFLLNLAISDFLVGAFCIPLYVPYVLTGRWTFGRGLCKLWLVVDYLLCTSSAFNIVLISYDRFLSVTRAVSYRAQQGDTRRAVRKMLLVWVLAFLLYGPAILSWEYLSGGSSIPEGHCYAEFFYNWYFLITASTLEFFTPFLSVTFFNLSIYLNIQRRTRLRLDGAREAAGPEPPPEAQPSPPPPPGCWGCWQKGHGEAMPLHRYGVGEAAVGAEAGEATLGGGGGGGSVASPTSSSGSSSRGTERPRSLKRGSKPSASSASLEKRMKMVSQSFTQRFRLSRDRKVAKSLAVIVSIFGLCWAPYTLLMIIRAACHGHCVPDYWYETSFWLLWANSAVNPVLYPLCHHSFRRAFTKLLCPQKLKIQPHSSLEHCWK

Compound: S=C(NC1CCCCC1)N1CCC(c2cnc[nH]2)CC1 [Thioperamide]
MES (mice) (MES [1]; 10 & 15 mg/kg i.p.): protection
PTZ (mice) (PTZ [2]; 7.5 & 15 mg/kg i.p.): protection

% Antagonism 100 nM (H3R [3]): 54.16 ± 7.33%
% Antagonism 1 μM (H3R [3]): 246.29 ± 21.48%
Compound: Clc1ccc(CCCOCCCN2CCCCC2)cc1 [PIT, Pitolisant, reference compound]
protection against MES-induced convulsions (reduction or abolition of THLE) (MES-induced convulsions; [9]): moderately
protection against MES-induced convulsions (THLE) (MES-induced convulsions; 20 mg/kg): fully abrogate the tonic hind limb extension; also recorded: fully abrogate the THLE
protection against MES-induced convulsions in different doses (MES-induced convulsions): dose-dependently
protection against PTZ-induced convulsions (PTZ-induced convulsions; 10 mg/kg i.p.): failed to protect
MES (rats) (MES [4]): protection
PTZ (rats) (PTZ [5]): no protection
EEG profile in the human photosensitivity model [6]: favourable EEG profile in a dose-dependent manner

Compound: CCCC(CCC)C(=O)O [VPA, Valproic acid, reference compound]
protection against MES-induced convulsions (reduction or abolition of THLE) (MES-induced convulsions; 300 mg/kg): potently
protection against PTZ-induced convulsions (PTZ-induced convulsions; 300 mg/kg i.p.): full protection

Compound: CCCCCCCOc1ccc2c(c1)-c1nncn1CCO2 [II]
MES (mice) (MES [1]; 10 mg/kg i.p.): protection
PTZ (mice) (PTZ [2]; 30 mg/kg i.p.): protection

% Antagonism 100 nM (H3R [3]): 201.12 ± 12.63%
% Antagonism 1 μM (H3R [3]): 203.92 ± 8.44%
IC50 (H3R [3]; CRE luciferase assay, HEK-293 cells, Table 1): 5.92 nM
EC50 (H3R [7]): 129 nM
melting point: 165 to 167 °C
Compound: Clc1ccc(-c2nncn2-c2ccc(OCCCN3CCCCC3)cc2)cc1 [Compound 3m, 1-(3-(4-(3-(4-chlorophenyl)-4H-1,2,4-triazol-4-yl)phenoxy)propyl)piperidine]
effect on the level of cAMP when treated alone (intracellular cAMP): no significant effects
protection against MES-induced seizures when co-treated with RAMH (MES-induced convulsions; 10 mg/kg i.p. plus RAMH 10 mg/kg i.p.): fully abrogated; also recorded: lost its original protective effect
protection against MES-induced convulsions (reduction or abolition of THLE) (MES-induced convulsions; [9]): moderate protection
protection against MES-induced convulsions in different doses (MES-induced convulsions): dose dependent
neurotoxicity in rotarod test [8]: no neurotoxicity
